# Test system: DOHH2 and TMD8 DLBCL cells
# Experiment: Gene expression profiling (HumanHT-12 v4 BeadChip, limma), ST7612AA1 300 nM 8 hrs vs DMSO
# Assay type: cell-based, human
# Settings: 300 nM 8 hrs vs DMSO
compound,measurement,value
CC(=O)SCCCCC[C@H](NC(=O)[C@H]1CCC(=O)N1)C(=O)Nc1ccccc1 [ST7612AA1],log ratio ATP6V0C (probe ILMN_1773849),8.22E-01
same,log ratio ATP6V1G2 (probe ILMN_1654541),8.47E-01
same,log ratio ATP6V1H (ILMN_2403730),6.35E-01
same,log ratio ATP7B (probe ILMN_1722056),8.88E-01
same,log ratio AVEN (ILMN_1710216),-1.49E+00
same,log ratio AVPI1 (probe ILMN_1671731),8.94E-01
same,log ratio AZI1 (probe ILMN_1746206),7.59E-01
same,log ratio BAG2 (ILMN_3244893),-9.02E-01
same,log ratio BCCIP (ILMN_1771966),-9.03E-01
same,log ratio BCLAF1 (ILMN_1775192),-8.85E-01
same,log ratio BCLAF1 (ILMN_2357272),-8.42E-01
same,log ratio BEND3 (ILMN_2375032),-9.71E-01
same,log ratio BHLHB2 (ILMN_1768534),-5.96E-01
same,log ratio BID (ILMN_1763386),-1.18E+00
same,log ratio BID (ILMN_2372413),-8.80E-01
same,log ratio BIK (probe ILMN_1770505),7.57E-01
same,log ratio BLK (ILMN_1668277),-8.77E-01
same,log ratio BLVRB (probe ILMN_1797793),8.74E-01
same,log ratio BMF (ILMN_1695354),6.49E-01
same,log ratio BNIP3L (probe ILMN_1718961),8.34E-01
same,log ratio BPHL (probe ILMN_1657746),8.91E-01
same,log ratio BRIX1 (ILMN_1679800),-1.03E+00
same,log ratio BRIX1 (ILMN_2155172),-1.19E+00
same,log ratio BRPF3 (ILMN_1658800),-7.82E-01
same,log ratio C3orf34 (probe ILMN_1665217),6.96E-01
same,log ratio C4orf32 (probe ILMN_1700257),8.83E-01
same,log ratio C7orf47 (ILMN_1741475),6.62E-01
same,log ratio C7orf55 (ILMN_3238680),-1.06E+00
same,log ratio C8orf13 (ILMN_1687213),6.60E-01
same,log ratio C8orf33 (ILMN_2098325),-8.34E-01
same,log ratio C9orf45 (ILMN_1719998),6.75E-01
same,log ratio C10orf32 (ILMN_2151056),-8.22E-01
same,log ratio C12orf24 (ILMN_2180371),-1.09E+00
same,log ratio C12orf52 (probe ILMN_1667857),6.98E-01
same,log ratio C13orf15 (probe ILMN_1658494),7.74E-01
same,log ratio C13orf25 (ILMN_1660754),-8.20E-01
same,log ratio C14orf4 (ILMN_1804396),6.53E-01
same,log ratio C14orf173 (probe ILMN_2393450),7.70E-01
same,log ratio C14orf179 (probe ILMN_1756877),7.81E-01
same,log ratio C16orf57 (ILMN_1765880),6.49E-01
same,log ratio C17orf58 (ILMN_1712985),6.08E-01
same,log ratio C17orf58 (ILMN_2398926),6.52E-01
same,log ratio C18orf45 (ILMN_1690442),6.69E-01
same,log ratio C18orf55 (ILMN_1748916),-8.33E-01
same,log ratio C19orf2 (ILMN_2406892),-6.10E-01
same,log ratio C20orf108 (ILMN_1708016),6.16E-01
same,log ratio C20orf177 (ILMN_1718712),-9.03E-01
same,log ratio CA2 (probe ILMN_2199439),7.93E-01
same,log ratio CABLES1 (ILMN_1653001),-5.93E-01
same,log ratio CALM1 (ILMN_1778242),6.20E-01
same,log ratio CAMLG (probe ILMN_1714599),7.30E-01
same,log ratio CARHSP1 (ILMN_1809477),5.98E-01
same,log ratio CASC1 (ILMN_1708983),6.58E-01
same,log ratio CASC4 (probe ILMN_2325574),6.85E-01
same,log ratio CBX7 (probe ILMN_1657361),7.49E-01
same,log ratio CCDC6 (ILMN_1745904),6.24E-01
same,log ratio CCDC16 (ILMN_2154603),-8.59E-01
same,log ratio CCDC24 (probe ILMN_1718771),6.89E-01
same,log ratio CCDC43 (ILMN_1743783),-5.96E-01
same,log ratio CCDC58 (ILMN_1686920),-1.25E+00
same,log ratio CCDC59 (ILMN_1662318),-8.48E-01
same,log ratio CCDC86 (ILMN_1792681),-9.35E-01
same,log ratio CCDC92 (probe ILMN_1731107),8.05E-01
same,log ratio CCDC128 (ILMN_1667356),6.21E-01
same,log ratio CCNYL1 (ILMN_1810069),6.58E-01
same,log ratio CCNYL1 (ILMN_2166524),6.44E-01
same,log ratio CCR7 (ILMN_1715131),6.79E-01
same,log ratio CD58 (ILMN_1785268),-9.16E-01
same,log ratio CD58 (ILMN_2147517),-9.82E-01
same,log ratio CD74 (ILMN_1736567),6.75E-01
same,log ratio CD74 (probe ILMN_1761464),8.47E-01
same,log ratio CD74 (probe ILMN_2379644),7.27E-01
same,log ratio CDC2L6 (probe ILMN_1676891),6.96E-01
same,log ratio CDC25A (ILMN_1711005),-8.24E-01
same,log ratio CDC42EP5 (probe ILMN_1774982),8.75E-01
same,log ratio CDK2AP2 (probe ILMN_1690653),8.01E-01
same,log ratio CDK4 (ILMN_1689001),-8.13E-01
same,log ratio CECR1 (probe ILMN_1751851),8.43E-01
same,log ratio CEP70 (ILMN_1741350),6.16E-01
same,log ratio CERK (ILMN_1767475),6.70E-01
same,log ratio CHCHD4 (ILMN_1813938),-1.36E+00
same,log ratio CHD7 (ILMN_1677376),6.71E-01
same,log ratio CHRAC1 (ILMN_1722390),-6.19E-01
same,log ratio CHSY1 (ILMN_1791576),6.80E-01
same,log ratio CLCC1 (probe ILMN_1671933),8.48E-01
same,log ratio CLECL1 (ILMN_1782729),-1.24E+00
same,log ratio CLIC4 (probe ILMN_2063586),7.49E-01
same,log ratio CLIP2 (ILMN_2352190),6.09E-01
same,log ratio CMIP (ILMN_1738075),6.47E-01
same,log ratio CMTM8 (probe ILMN_1710124),7.00E-01
same,log ratio CNFN (ILMN_1803838),6.20E-01
same,log ratio CNIH2 (ILMN_1698733),6.32E-01
same,log ratio COCH (ILMN_1711514),-6.14E-01
same,log ratio COIL (ILMN_1688034),-9.94E-01
same,log ratio COTL1 (probe ILMN_1788283),6.87E-01
same,log ratio CPOX (ILMN_3240389),6.04E-01
same,log ratio CRIP1 (probe ILMN_1656920),8.56E-01
same,log ratio CRYM (probe ILMN_1779241),8.32E-01
same,log ratio CSRP1 (probe ILMN_1811921),7.01E-01
same,log ratio CSTB (probe ILMN_1761797),8.06E-01
same,log ratio CTPS (ILMN_1783285),-1.21E+00
same,log ratio CTSB (probe ILMN_2359742),8.56E-01
same,log ratio CUEDC1 (ILMN_1676665),5.93E-01
same,log ratio CUL1 (ILMN_1749629),-1.05E+00
same,log ratio CXADR (probe ILMN_1796925),8.18E-01
same,log ratio CXCL16 (ILMN_1728478),6.11E-01
same,log ratio CXorf26 (ILMN_1768176),-1.34E+00
same,log ratio CXorf57 (probe ILMN_1703279),8.25E-01
same,log ratio CYB5R1 (probe ILMN_1729237),7.59E-01
same,log ratio CYB5R3 (probe ILMN_1740441),7.06E-01
same,log ratio CYP2R1 (probe ILMN_2119774),7.88E-01
same,log ratio DAD1 (ILMN_1731619),6.40E-01
same,log ratio DCTD (ILMN_1802456),-1.08E+00
same,log ratio DCTN6 (ILMN_1744059),-8.19E-01
same,log ratio DCXR (ILMN_1681437),6.03E-01
same,log ratio DDN (ILMN_1673450),-6.03E-01
same,log ratio DDX21 (ILMN_1735461),-9.88E-01
same,log ratio DEF8 (probe ILMN_1767509),8.37E-01
same,log ratio DGCR6L (probe ILMN_3245688),7.47E-01
same,log ratio DGKQ (ILMN_1793017),6.08E-01
same,log ratio DHRS2 (ILMN_1725726),6.46E-01
same,log ratio DIS3L (ILMN_1795822),-1.05E+00
same,log ratio DKC1 (ILMN_1671257),-1.02E+00
same,log ratio DNLZ (ILMN_2112049),-1.09E+00
same,log ratio DNMT3B (probe ILMN_1794692),8.14E-01
same,log ratio DOK4 (ILMN_1774261),6.37E-01
same,log ratio DPF1 (ILMN_1769961),6.38E-01
same,log ratio DPH2 (ILMN_2375418),-1.21E+00
same,log ratio DSTN (probe ILMN_1706426),7.52E-01
same,log ratio DTX1 (ILMN_1689002),-5.96E-01
same,log ratio DUS3L (ILMN_1723235),-1.36E+00
same,log ratio DYNC1H1 (probe ILMN_1780302),6.97E-01
same,log ratio DYNLL2 (probe ILMN_1772796),8.61E-01
same,log ratio DYRK1A (ILMN_2374293),-5.97E-01
same,log ratio DYRK3 (probe ILMN_2400322),6.97E-01
same,log ratio DYRK3 (probe ILMN_2400326),8.26E-01
same,log ratio EARS2 (ILMN_1758750),-5.91E-01
same,log ratio EBI2 (ILMN_1798706),-8.22E-01
same,log ratio EBI2 (ILMN_2168217),-9.10E-01
same,log ratio ECHS1 (probe ILMN_1718132),7.78E-01
same,log ratio EEF1B2 (ILMN_1685678),-8.07E-01
same,log ratio EEF1E1 (ILMN_1725105),-8.38E-01
same,log ratio EGR1 (probe ILMN_1762899),8.42E-01
same,log ratio ELOF1 (probe ILMN_1723185),7.14E-01
same,log ratio EMG1 (ILMN_1797074),-1.12E+00
same,log ratio ENC1 (probe ILMN_1779147),7.93E-01
same,log ratio ENO2 (probe ILMN_1765796),7.11E-01
same,log ratio EPB41L5 (ILMN_1770245),6.78E-01
same,log ratio EPN1 (ILMN_1772981),6.50E-01
same,log ratio ERRFI1 (probe ILMN_1665510),7.44E-01
